Patent publication US12576107B2, “Methods of treating chronic inflammatory diseases” (METIMEDI PHARMACEUTICALS CO., LTD., priority 2018, dated 2026)

Columns and labels:
Apolipoprotein E = assay: Immunocytochemistry of drusen marker Apolipoprotein E in ARPE-19 cells; format: cell-based, Human; conditions: 2.5 mM, hypoxia
Method: Human retinal pigment epithelium cell line, ARPE-19, was purchased from American Type Culture Collection (Manassas, VA, USA). The ARPE-19 cells were maintained in RPMI1640 containing 10% fetal bovine serum (Life Technologies, Gaithersburg, MD, USA), 100 IU/ml penicillin, and 100 μg/ml streptomycin (Welgene, Daegu, South Korea).
ARPE-19 and SK-N-SH cells were fixed on bio-coated coverslips (BD bioscience, San Jose, CA, USA) by 4% PFA for 20 min and then incubated with the primary antibodies for 15 h. The primary antibodies were as follows: HIF-1a (1:300, BD Biosciences, San Jose, CA, USA); LDH-A (1:300, Santa Cruz Biotechnology, Santa Cruz, CA, USA); LDH-B (1:300, Santa Cruz Biotechnology, Santa Cruz, CA, USA); NF-κB (1:300, Santa Cruz Biotechnology, Santa Cruz, CA, USA); TLR-4 (1:300, Santa Cruz Biotechnology, Santa Cruz, CA, USA); apoE (1:200, Santa Cruz Biotechnology, Santa Cruz, CA, USA). After PBS wash, the cells were incubated with anti-mouse secondary biotinylated antibody (1:2000, Vector Laboratorie, Burlingame, CA, USA) and visualized with streptavidin conjugated to Fluorescein (Vector Laboratorie, Burlingame, CA, USA). […] Confocal fluorescence images were obtained with confocal laser scanning microscopy (LSCM, Nikon A1+, Tokyo, Japan) under a 60× oil immersion lens.

6-OHDA injected rats = assay: Parkinson's disease model, desipramine and 6-OHDA injection; format: in vivo, Sprague-Dawley (SD) rats; conditions: 2 mg/kg daily subcutaneous 21 days; 6-OHDA rats
Method: Animals. […] Eight-week old male Sprague-Dawley (SD) rats were obtained from Samtako Co. (Osan, Gyeonggi-do, Republic of Korea) and bred under specific-pathogen-free (SPF) conditions. All animals were maintained in a 12-hour light/dark cycle at 22-25° C. with free access to food and water.
Desipramine (12.5 mg/kg; noradrenaline transporter blocker; Sigma Aldrich, St. Louis, USA) was dissolved in saline for intraperitoneal injection. 6-OHDA (20 μg/rat, Sigma Aldrich, St. Louis, USA) was dissolved in saline for intracranial injection.
Injection of desipramine and 6-OHDA. The animals were injected with desipramine into the abdominal cavity (intraperitoneal injection) 30 min before 6-OHDA injection. 30 min after Desipramine injection, the animals were placed in a small acrylic cage that was coupled with an anesthesia machine that allowed them to breathe freely under gaseous anesthesia (2% isoflurane, Spartanburg, SC, USA). […] The animal fur of head was shaved with an electric clipper, and the skin was swabbed with iodine. All the surgical materials disinfected with 70% ethanol. Hamilton syringe barrel inner space was cleaned with distilled water and 70% ethanol. The Hamilton syringe was placed in the syringe holder. […] The three coordinates (AP: −5.6, LM: 2.0, and DV: −7.6) on the manipulator (in mm) were read and used as the starting point. […]

NF-κb = assay: Western blot of NF-κb in the tissue of retinal pigment epithelium; format: in vivo, mice; conditions: 2.5 mM (so in the source)
Method: To prepare whole cell lysate, cells were lysed with lysis buffer (1% NP-40, 0.25% sodium deoxycholate, 150 mM NaCl, 1 mM EDTA, 1% Triton X-100, 50 mM Tris-HCl (pH 7.4), 10% Glycerol) with protease inhibitor cocktail (Roche, Basel, Switzerland) and phosphatase inhibitors (NA3VO4 1 mM, NaF 100 mM). Then, protein concentration was measured using the Bicinchoninic acid (BCA) assay kit (Thermo Scientific, Waltham, MA). Whole cell or nuclear lysates were transferred onto polyvinylidene fluoride membranes (Merck Millipore, Billerica, MA, USA). After blocking in 5% non-fat milk (Bio-Rad, Hercules, CA, USA) for 1 h, the membranes were incubated overnight at 4° C. with primary antibody diluted in TBST containing 100 mM Tris-HCl (pH 7.5), 1.5 M NaCl, and 0.5% Tween-20 obtained from Sigma-Aldrich, to which 5% BSA and 0.1% sodium azide (Sigma-Aldrich) had been added. Specific primary antibodies to HIF-1α (1:1000), HIF-2α (1:1000), LDH-A (1:1000), LDH-B (1:1000), TLR-4 (1:1000), NF-κB (1:1000), VEGF (1:1000), α-tubulin (1:1000), Actin (1:1000), and GAPDH (1:5000). The next day, the membranes were washed with TBST and incubated for 2 h with anti-rabbit secondary antibody (1:10000). Immunoblots were developed using a western blot detection reagent (Abclone, Seoul, Korea) and exposed to x-ray film (Agfa, Leverkusen, Germany) according to the manufacturer's protocol. […]

CC(O)C(=O)[O-].CC(O)C(=O)[O-].[Ca+2] (stereo not drawn) [calcium lactate]
drusen marker (Apolipoprotein E), immunocytochemistry (Apolipoprotein E): decreased | dopaminergic neuron (tyrosine hydroxylase staining) (6-OHDA injected rats): Recovery | inflammatory factor (NF-κb), Western blot (NF-κb): decreased
